# Results from ChEMBL document CHEMBL1201862, “PubChem BioAssay data set” (2004).
#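 Interpolation was linear, between the two tested concentrations surrounding the appropriate level; five concentrations were tested over 48 hours in 96-well plates. At the GI50, growth is halved.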 Activity calls are given as the source filed them. Rule as the data show it: active = GI50 up to about 1.1 µM and inactive = higher.
# Columns and labels:
# Test in all cases: DTP human tumour cell line panel, 48 h
# [1] = tested on: MOLT-4
# [2] = tested on: HCT-15
# [3] = tested on: OVCAR-3
# [4] = tested on: BT-549
# [5] = tested on: SK-OV-3
# [6] = tested on: RPMI-8226
# [7] = tested on: A549
# [8] = tested on: UACC-257
# [9] = tested on: UO-31
# [10] = tested on: SF-539
# [11] = tested on: Hs-578T
# [12] = tested on: SR
# [13] = tested on: HL-60
# [14] = tested on: PC-3
# [15] = tested on: IGROV-1
# [16] = tested on: SF-268
# [17] = tested on: HOP-62
# [18] = tested on: T47D
# [19] = tested on: OVCAR-8
# [20] = tested on: NCI-H460
# [21] = tested on: TK-10
# [22] = tested on: U-251
# [23] = tested on: CAKI-1
# [24] = tested on: SNB-75
# [25] = tested on: 786-0
# [26] = tested on: Malme-3M
# [27] = tested on: OVCAR-5
# [28] = tested on: MCF7
# [29] = tested on: SNB-19
# [30] = tested on: RXF 393
# [31] = tested on: MDA-MB-231
# [32] = tested on: COLO 205
# [33] = tested on: HCT-116
# [34] = tested on: SN12C
# [35] = tested on: ACHN
# [36] = tested on: HOP-92
# [37] = tested on: SK-MEL-28
# [38] = tested on: KM12
# [39] = tested on: NCI-H522
# [40] = tested on: K562
# [41] = tested on: HCC 2998
# [42] = tested on: CCRF-CEM
# [43] = tested on: A498
# [44] = tested on: NCI-H23
# [45] = tested on: LOX IMVI
# [46] = tested on: SK-MEL-2
# [47] = tested on: DU-145
# [48] = tested on: SW-620
# [49] = tested on: UACC-62
# [50] = tested on: MDA-MB-435
# [51] = tested on: NCI-H226
# [52] = tested on: M14
# [53] = tested on: NCI/ADR-RES
# [54] = tested on: SK-MEL-5
# [55] = tested on: OVCAR-4
# [56] = tested on: MDA-N
# [57] = tested on: SF-295
# [58] = tested on: HT-29
# [59] = tested on: EKVX
structure (smiles),measurement,setting,value
Cc1ccc(C2SCC(=O)N2c2ccc(-n3c(-c4ccccc4)nc4ccccc4c3=O)cc2)cc1 (stereo not given),GI50,[1],7.1 µM (inactive)
same,GI50,[2],6.65 µM
same,GI50,[3],13.2 µM (inactive)
same,GI50,[4],20.2 µM (inactive)
same,GI50,[5],4.95 µM (inactive)
same,GI50,[6],13.7 µM (inactive)
same,GI50,[7],25.1 µM (inactive)
same,GI50,[8],24.9 µM (inactive)
same,GI50,[9],16.2 µM (inactive)
same,GI50,[10],12.4 µM (inactive)
same,GI50,[11],10 µM (inactive)
same,GI50,[12],7.89 µM (inactive)
same,GI50,[13],19.5 µM (inactive)
same,GI50,[14],12.7 µM (inactive)
same,GI50,[15],20.5 µM (inactive)
same,GI50,[16],24.2 µM (inactive)
same,GI50,[17],12.9 µM (inactive)
same,GI50,[18],15.5 µM (inactive)
same,GI50,[19],16.2 µM (inactive)
same,GI50,[20],9.42 µM (inactive)
same,GI50,[21],50.9 µM (inactive)
same,GI50,[22],5.3 µM (inactive)
same,GI50,[23],30.1 µM (inactive)
same,GI50,[24],18.3 µM (inactive)
same,GI50,[25],18.7 µM (inactive)
same,GI50,[26],22 µM (inactive)
same,GI50,[27],42.4 µM (inactive)
same,GI50,[28],22.6 µM (inactive)
same,GI50,[29],26.9 µM (inactive)
same,GI50,[30],22.8 µM (inactive)
same,GI50,[31],4.84 µM (inactive)
same,GI50,[32],30.1 µM (inactive)
same,GI50,[33],7.82 µM (inactive)
same,GI50,[34],37.8 µM (inactive)
same,GI50,[35],16.6 µM (inactive)
same,GI50,[36],15.2 µM (inactive)
same,GI50,[37],21 µM (inactive)
same,GI50,[38],16.6 µM (inactive)
same,GI50,[39],13.5 µM (inactive)
same,GI50,[40],7.26 µM (inactive)
same,GI50,[41],17.5 µM (inactive)
same,GI50,[42],8.18 µM (inactive)
same,GI50,[43],26.1 µM (inactive)
same,GI50,[44],36.4 µM (inactive)
same,GI50,[45],9.98 µM (inactive)
same,GI50,[46],20.8 µM (inactive)
same,GI50,[47],31 µM (inactive)
same,GI50,[48],34.6 µM (inactive)
same,GI50,[49],11.5 µM (inactive)
same,GI50,[50],21.1 µM (inactive)
same,GI50,[51],18.5 µM (inactive)
same,GI50,[52],23.3 µM (inactive)
same,GI50,[53],19.3 µM (inactive)
same,GI50,[54],11.6 µM (inactive)
same,GI50,[55],22.8 µM (inactive)
same,GI50,[56],20.9 µM (inactive)
same,GI50,[57],14.7 µM (inactive)
same,GI50,[58],17.2 µM (inactive)
Clc1ccc(-c2nnc3sc4nc5ccccc5c-4nn23)c(Cl)c1,GI50,[1],36.8 µM (inactive)
same,GI50,[59],28.8 µM (inactive)
same,GI50,[2],34.9 µM
same,GI50,[3],29 µM (inactive)
same,GI50,[4],28.9 µM (inactive)
same,GI50,[5],95.1 µM (inactive)
same,GI50,[7],41.7 µM (inactive)
same,GI50,[8],38.5 µM (inactive)
same,GI50,[9],62.4 µM (inactive)
same,GI50,[10],50.9 µM (inactive)
same,GI50,[11],21.7 µM (inactive)
same,GI50,[12],44.9 µM (inactive)
same,GI50,[13],41.7 µM (inactive)
same,GI50,[14],43.3 µM (inactive)
same,GI50,[16],33.7 µM (inactive)
same,GI50,[17],67 µM (inactive)
same,GI50,[18],59.2 µM (inactive)
same,GI50,[19],50 µM (inactive)
same,GI50,[20],41.8 µM (inactive)
same,GI50,[21],55.2 µM (inactive)
same,GI50,[22],36.6 µM (inactive)
same,GI50,[23],34.7 µM (inactive)
same,GI50,[24],71 µM (inactive)
same,GI50,[25],52.6 µM (inactive)
same,GI50,[26],49.4 µM (inactive)
same,GI50,[27],50.6 µM (inactive)
same,GI50,[28],43.3 µM (inactive)
same,GI50,[29],49.4 µM (inactive)
same,GI50,[30],78.9 µM (inactive)
same,GI50,[31],99.3 µM (inactive)
same,GI50,[32],56.4 µM (inactive)
same,GI50,[33],40.7 µM (inactive)
same,GI50,[34],50.6 µM (inactive)
same,GI50,[35],82.8 µM (inactive)
same,GI50,[36],19.1 µM (inactive)
same,GI50,[37],43.9 µM (inactive)
same,GI50,[38],37.5 µM (inactive)
same,GI50,[39],26.2 µM (inactive)
same,GI50,[40],31.8 µM (inactive)
same,GI50,[41],28.7 µM (inactive)
same,GI50,[42],36.5 µM (inactive)
same,GI50,[43],36.4 µM (inactive)
same,GI50,[44],29 µM (inactive)
same,GI50,[45],44 µM (inactive)
same,GI50,[46],30.6 µM (inactive)
same,GI50,[47],72.1 µM (inactive)
same,GI50,[48],46 µM (inactive)
same,GI50,[49],33.5 µM (inactive)
same,GI50,[50],32.6 µM (inactive)
same,GI50,[51],64.3 µM (inactive)
same,GI50,[52],48.3 µM (inactive)
same,GI50,[53],34.4 µM (inactive)
same,GI50,[54],42.8 µM (inactive)
same,GI50,[55],42 µM (inactive)
same,GI50,[56],28.6 µM (inactive)
same,GI50,[57],36.2 µM (inactive)
same,GI50,[58],55.7 µM (inactive)
